Data set [1] addresses T1, GRPR (Homo sapiens, UniProt P30550). Nature of the data set: Competitive binding assay with [125I-Tyr4]bombesin on PC3 cells. Further details: host or cells: PC3 cells (whole, adherent cells in 24-well plates). As to conditions: read-out: Ki (affinity for GRPR). The protocol:
Competition assays were performed in 24-well plates using PC3 cells. The cells were cultured until near confluence, and the medium was replaced by 400 μL of reaction medium (RPMI complemented with 2 mg/mL BSA, 4.8 mg/mL HEPES, 1 U/mL penicillin G and 1 μg/mL streptomycin). For the assay, equal volumes of radioactive and non-radioactive ligands were added. […] The plates were incubated for 40 min at 37°C with agitation. After the incubation, the reaction medium was removed, and the cells were washed three times with PBS at room temperature. The cells were harvested and counted in a gamma counter (Cobra II auto-gamma counter, Packard, MN, USA). Experiments were realized three times in triplicate. Data were analyzed with GraphPad Prism 5 Software (GraphPad Software, San Diego, CA, USA) to determine the IC50. Finally, the Ki was determined using Cheng and Pursoff's formula [32].

Data set [2] addresses T2, GRPR (Mus musculus, UniProt P21729).
T2 construct: using the pancreas, a GRPR-rich tissue, as a target for specific receptor-mediated accumulation; from tissue; host or cells: Female Balb/c mice, in vivo; organs (pancreas and others) collected 30 min p.i
Nature of the data set: Biodistribution in Balb/c mice (in vivo GRPR-targeting efficacy). As to conditions: mouse, pancreas, intravenous, total radioactivity; 64Cu-labeled peptide, female Balb/c mice, 30 min p.i. The procedure: To determine the in vivo GRPR-targeting efficacy of labeled peptides, biodistribution of female Balb/c mice were realized with a minimum of 4 mice for each condition. Briefly, mice were injected with 370 to 740 kBq (10 to 20 μCi; 100 μL) of either ^64Cu/NOTA-monomer, ^64Cu/NOTA-dimer 1 or ^64Cu/NOTA-dimer 2 via the caudal vein. The animals were sacrificed with CO2 at 30 min post-injection [p.i.]. Organs of interest were then collected, weighed and measured in a gamma counter. The results were expressed as percentage of the injected dose per gram of tissue [%ID/g].

Data set [3] addresses T1, GRPR. Nature of the data set: Competitive binding in human breast cancer T47D cells. As to conditions: tested in triplicate. An excerpt: Table 1 Analytical data for NOTA-BBN(6-14) monomer and dimmers | column: Peptide
In a further data set the test system is PC3 tumor. Nature of the data set: in vivo. As to conditions: Balb/c nude, mouse, 2 h. Further details: species or system Balb/c nude mice. The protocol:
(§1) Tumor-bearing Balb/c nude mice were injected with 370 to 740 kBq (10 to 20 μCi; 100 μL) of ^64Cu/NOTA-monomer and ^64Cu/NOTA-dimer 2 via the caudal vein and sacrificed with CO2 at different periods of time after injection. Organs of interest were then collected and weighed. -Radioactivity was measured in a gamma counter. The blocking experiments were realized by co-injecting 0.1 μmol of non-radiolabeled peptide. The results were expressed as %ID/g with a minimum of 3 mice for each condition.

The next data set is described as follows: in vivo. Further details: species or system Balb/c nude mice. As to conditions: Balb/c nude, mouse, total radioactivity; for tissue to tissue ratio at 0.5 h / tissue to tissue ratio at 2 h: iv. The protocol:
as §1

Data set [4] is classed as in vitro ADME. As to conditions: 24 h. The procedure: Plasma and in vivo stability studies were realized as previously described by our group. Briefly, after peptide reconstitution, studies were carried out by incubating the tracers in mouse plasma for a period of 24 h and by injecting around 15 to 25 MBq (400 to 650 μCi; 100 μL) of ^64Cu/peptide to female Balb/c mice; 3 mice per peptide. After 24 h, a portion of the incubation mixtures in plasma or blood samples taken from the back paw were quenched with equal amounts of MeCN, chilled (4°C) and centrifuged, and the supernatant was assayed by HPLC. The stability was also determined by radio-TLC directly from plasma and blood samples without further handling; free ^64Cu and purified radiolabeled peptides were used as standards. The radio-TLCs were eluted on C-18-coated plastic sheets with 0.1 M sodium citrate buffer at pH 5.5 using an instant imager system for the radio-detection.

Numbered stars: 1 amine (or outer) side, 2 acyl side, 3 side chain; on linkers, the order of the positions; unused ones are H or OH. Bridge positions count the residues as written; N and C are the ends. Square brackets hold non-standard residues; d marks the D form. Peptide text beside a SMILES is read from it. I, II: the chains in the order shown. * marks the point of attachment. NOTA = O=C(O)CN1CCN(CC(=O)O)CCN(CC(=O)*)CC1; X1 = O=C(CCC(=O)[*:2])NCCOCCOCC(=O)[*:1]; 2Thi = N[C@@H](Cc1cccs1)C(=O)O; Nle = CCCC[C@H](N)C(=O)O; AEEA = NCCOCCOCC(=O)O; βAla = NCCC(=O)O

Data on two compounds can be found in PMC3323469, “Comparative study of ^64Cu/NOTA-[D-Tyr^6,βAla^11,Thi^13,Nle^14]BBN(6-14) monomer and dimers for prostate cancer PET imaging” (EJNMMI Research, 2012).

For orientation: Ki means a dissociation constant, usually derived from enzyme kinetics or from competition with a known ligand. The tissue uptake is the share of the injected amount in each gram of the tissue.

T1 sequence (P30550 whole entry): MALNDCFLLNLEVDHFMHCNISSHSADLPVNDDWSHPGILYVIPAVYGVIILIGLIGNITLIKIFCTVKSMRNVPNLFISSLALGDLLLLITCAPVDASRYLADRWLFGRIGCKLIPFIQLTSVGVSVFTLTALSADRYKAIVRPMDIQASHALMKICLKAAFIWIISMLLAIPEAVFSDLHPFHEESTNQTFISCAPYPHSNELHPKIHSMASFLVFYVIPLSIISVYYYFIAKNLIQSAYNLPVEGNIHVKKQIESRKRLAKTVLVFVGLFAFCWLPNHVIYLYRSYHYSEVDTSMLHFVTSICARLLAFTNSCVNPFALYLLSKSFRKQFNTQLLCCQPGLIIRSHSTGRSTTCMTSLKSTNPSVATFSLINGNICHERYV
T2 sequence (P21729 whole entry): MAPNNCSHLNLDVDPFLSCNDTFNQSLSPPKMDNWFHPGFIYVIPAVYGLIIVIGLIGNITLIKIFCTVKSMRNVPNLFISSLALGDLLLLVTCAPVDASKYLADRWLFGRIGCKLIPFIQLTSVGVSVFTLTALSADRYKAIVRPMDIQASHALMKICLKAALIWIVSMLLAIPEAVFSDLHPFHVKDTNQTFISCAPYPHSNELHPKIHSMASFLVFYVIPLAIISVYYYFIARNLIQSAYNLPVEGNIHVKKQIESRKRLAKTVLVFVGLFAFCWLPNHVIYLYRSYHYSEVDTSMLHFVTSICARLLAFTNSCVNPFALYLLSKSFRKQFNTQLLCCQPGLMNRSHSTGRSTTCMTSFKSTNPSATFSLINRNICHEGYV

With `CCCC[C@H](NC(=O)[C@H](Cc1cccs1)NC(=O)[C@H](Cc1c[nH]cn1)NC(=O)CCNC(=O)[C@@H](NC(=O)[C@H](C)NC(=O)[C@H](Cc1c[nH]c2ccccc12)NC(=O)[C@H](CCC(N)=O)NC(=O)[C@@H](Cc1ccc(O)cc1)NC(=O)COCCOCCNC(=O)CN1CCN(CC(=O)O)CCN(CC(=O)O)CC1)C(C)C)C(N)=O` [NOTA-monomer, NOTA-PEG-BBN(6-14)] ({NOTA-AEEA}-[dY]QWAV[βAla]H[2Thi][Nle]-NH2), the inhibition constant Ki at GRPR [1] was determined as 2.51 ± 1.54 nM; on GRPR [3], 1.3 nM. For the same compound, the tissue uptake at 0.5 h at GRPR [2] turned out to be 18.4 ± 2.9 %ID/g.

As for `CCCC[C@H](NC(=O)[C@H](Cc1cccs1)NC(=O)[C@H](Cc1c[nH]cn1)NC(=O)CCNC(=O)[C@@H](NC(=O)[C@H](C)NC(=O)[C@H](Cc1c[nH]c2ccccc12)NC(=O)[C@H](CCC(N)=O)NC(=O)[C@@H](Cc1ccc(O)cc1)NC(=O)CCC(=O)NCCOCCOCC(=O)N[C@@H](CCCCNC(=O)CN1CCN(CC(=O)O)CCN(CC(=O)O)CC1)C(=O)NCCOCCOCC(=O)NCC(=O)N[C@H](Cc1ccc(O)cc1)C(=O)N[C@@H](CCC(N)=O)C(=O)N[C@@H](Cc1c[nH]c2ccccc12)C(=O)N[C@@H](C)C(=O)N[C@H](C(=O)NCCC(=O)N[C@@H](Cc1c[nH]cn1)C(=O)N[C@@H](Cc1cccs1)C(=O)N[C@@H](CCCC)C(N)=O)C(C)C)C(C)C)C(N)=O` [^64Cu/NOTA-dimer 2, metal not drawn] (I: K(NOTA)[AEEA]G[dY]QWAV[βAla]H[2Thi][Nle]-NH2 / II: [dY]QWAV[βAla]H[2Thi][Nle]-NH2; linker I:N-II:N via X1), in the data set on PC3 tumor, the “Biodistribution Adrenal” value is 11.56 ± 4.91 %ID/g. Besides, the “Biodistribution Blood” value in the data set on PC3 tumor was 1.34 ± 0.15 %ID/g. Moreover, the “Biodistribution Fat” value with PC3 tumor is given as 0.68 ± 0.61 %ID/g. For the same compound, in the data set on PC3 tumor, the “Biodistribution Lungs” value is on record as 5.07 ± 1.58 %ID/g. In addition, the “Biodistribution Pancreas” value in the data set on PC3 tumor was determined as 13.35 ± 7.38 %ID/g. For the same compound, in the data set with PC3 tumor, the “Biodistribution Plasma” value is 2.45 ± 0.27 %ID/g. The Tumor/pancreas ratio in the data set on PC3 tumor (iv) is listed as 0.36 ± 0.09. In addition, the tissue to tissue ratio at 0.5 h was 1.39 ± 0.3 in the data set “in vivo” (Tumor/blood ratio); 0.28 ± 0.09 in the data set “in vivo” (Tumor/kidney ratio); 0.1 ± 0.01 in the data set “in vivo” (Tumor/liver ratio); 3.95 ± 1.98 in the data set “in vivo” (Tumor/muscle ratio); 0.89 ± 0.11 in “in vivo” (Tumor/pancreas ratio). Moreover, the tissue to tissue ratio at 2 h worked out at 4.09 ± 1.79 in “in vivo” (Tumor/blood ratio), 0.22 ± 0.11 in “in vivo” (Tumor/kidney ratio), 0.22 ± 0.07 in the data set “in vivo” (Tumor/liver ratio) and 4.46 ± 1.86 in “in vivo” (Tumor/muscle ratio). Further, the tissue uptake at 0.5 h was determined as 9.23 ± 5.01 %ID/g in “in vivo” (Biodistribution Adrenal); 3.13 ± 0.67 %ID/g in “in vivo” (Biodistribution Blood); 0.78 ± 0.21 %ID/g in the data set “in vivo” (Biodistribution Bone); 0.38 ± 0.06 %ID/g in the data set “in vivo” (Biodistribution Brain); 1.86 ± 0.81 %ID/g in “in vivo” (Biodistribution Fat); 4.42 ± 1.59 %ID/g in “in vivo” (Biodistribution Heart). In addition, the tissue uptake at 0.5 h in the data set “in vivo” (Biodistribution Kidney) was determined as 17 ± 6.24 %ID/g; in the data set “in vivo” (Biodistribution Liver), 41.8 ± 5.58 %ID/g; in “in vivo” (Biodistribution Lungs) it was 7.22 ± 2.73 %ID/g; in the data set “in vivo” (Biodistribution Muscle), 1.59 ± 1.16 %ID/g; in “in vivo” (Biodistribution Pancreas), 4.6 ± 0.57 %ID/g; in “in vivo” (Biodistribution Plasma) it was 5.27 ± 1.27 %ID/g. Also, the tissue uptake at 0.5 h in “in vivo” (Biodistribution Spleen) turned out to be 5.31 ± 1.43 %ID/g; in the data set “in vivo” (Biodistribution Tumor), 3.95 ± 0.26 %ID/g. Further, the tissue uptake at 2 h came out at 0.83 ± 0.19 %ID/g in the data set “in vivo” (Biodistribution Bone); 0.22 ± 0.05 %ID/g in “in vivo” (Biodistribution Brain); 2.68 ± 0.13 %ID/g in “in vivo” (Biodistribution Heart); 26.4 ± 8.13 %ID/g in the data set “in vivo” (Biodistribution Kidney); 23.1 ± 2.36 %ID/g in “in vivo” (Biodistribution Liver); 1.13 ± 0.62 %ID/g in “in vivo” (Biodistribution Muscle). The tissue uptake at 2 h in “in vivo” (Biodistribution Spleen) is 5.5 ± 2.61 %ID/g; in the data set “in vivo” (Biodistribution Tumor), 6.28 ± 2.87 %ID/g. The “Stability in mouse plasma” value in data set [4] was “stable”.
